Peptide text beside a SMILES is read from it.
Columns and labels:
[1] = Serum hepatic function index, xenograft nude mice (ELISA); type: in vivo, BALB/c nude mice; settings: vs control, 25 and 100 mg/kg
Description: Tumorigenesis assays were conducted in vivo using BALB/c nude mice and BALB/c mice from Guangdong Medical Laboratory Animal Center. The animal study was reviewed and approved by the Administrative Committee on Animal Research of Shenzhen International Graduate School, Tsinghua University (Ethical Development No. 16, 10 November 2021). Samples with 5 × 10^5 A375 or B16F10-Luc melanoma cells were diluted in 100 μL PBS and injected subcutaneously into 6- to 8-week-old female BALB/c nude mice or BALB/c mice. 5 days later, the mice were treated with CY12-RP2 by tail vein administration at various doses (25 mg/kg and 100 mg/kg) every two days. The tumor volume and body weight were measured every 2 days, with the calculation of the tumor volume under the assumption of an ellipsoidal tumor as: tumor volume = length × width^2/2. Tumors from BALB/c nude mice were collected and photographed on day 21, while tumors from the allograft mouse model were measured using bioluminescence imaging. The blood collected from the eyes of BALB/c nude mice were stored at 4 °C for 24 h and then centrifuged for 15 min under the indicated conditions (4 °C, 3000 rpm). The supernatant was collected and assayed for drug toxicity using kits, including AST, ALT, TG, and γ-GT. […]
Fig. S5: Effects and toxicity of CY12-RP2 in vivo […]
(E) Serum ALT, AST, TG, and γ-GT levels of the orthotopic xenografts model were
measured by ELISA. (F) H&E staining of liver, heart, spleen, lung, and kidney treated

Ki67 = Ki67 fluorescence staining of xenograft tumors; type: in vivo, BALB/c nude mice; settings: A375 xenograft tumors
Description: Fig. S4: The inhibition of cells metastasis and invasion by CY12-RP2 can be […]
(A, B) The inhibition of CY12-RP2 on the migration capacity of melanoma cell lines was reversed by SKL2001 (A). Statistical analysis was performed to determine the migrated distance (B). The power field scale bar, 100 μm. (C, D) Effect of CY12-RP2 on the invasive ability of melanoma cell lines were reversed by SKL2001 (C).
Statistical analysis was performed to count the invaded cells (D). The power field scale bar, 100 μm. (E) Western blot assay was also performed to detect the proteins related to EMT and Wnt/β-catenin signaling pathway, including N-cadherin, Vimentin, snail, Dvl2, Phospho-β-catenin-S675, β-catenin, Phospho-GSK3β-Ser9 and GSK3β by CY12-RP2 with or without SKL2001 (50 μM). Data are presented as mean ± SD. *p < […]
Fig. S5: Effects and toxicity of CY12-RP2 in vivo
(A) TUNEL analysis of apoptosis was conducted on orthotopic xenografts tumor sections using fluorescence staining. The power field scale bar, 100 μm. (B) Fluorescence staining of Ki67 was carried out on orthotopic xenograft tumor sections.
The power field scale bar, 100 μm. (C) Serum His-CY12-RP2 levels of the orthotopic xenografts mice treated by various dosage of CY12-RP2 were measured by His-ELISA kit. […]
kit. (E) Serum ALT, AST, TG, and γ-GT levels of the orthotopic xenografts model were measured by ELISA. […]

[2] = biological target: T1, PDPN recombinant proteins (Homo sapiens, UniProt Q86YL7); assay: SPR assay, binding to immobilized PDPN; settings: CM7 chip, 100 μM to 0.00128 μM
T1 construct: PDPN recombinant proteins were coated on the CM7 sensor chip
T1 sequence (Q86YL7 23-162): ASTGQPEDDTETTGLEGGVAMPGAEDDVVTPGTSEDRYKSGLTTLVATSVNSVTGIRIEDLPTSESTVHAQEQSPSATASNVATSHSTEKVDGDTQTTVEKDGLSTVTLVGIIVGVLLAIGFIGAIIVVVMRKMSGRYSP
Description: SPR assay was conducted on a GE Biacore 3000 (Cytiva, USA) using a CM7 sensorchip for protein immobilization. All experimental steps were performed at a temperature of 24 °C and samples were kept at 4 °C. CY12-RP1 and CY12-RP2 peptides were diluted in the running buffer ([…] saline buffer, HBS-EP) at the final concentrations ranging from 100 μM to 0.00128 μM. The peptides were injected at a rate of 30 μL/min through immobilized PDPN for 240 s for association. All regenerations were introduced at a flow rate of 30 µL/min. SPR assay was performed in triplicate and the results were analyzed using Biacore 3000 software.
To further investigate the potential anti-tumor effect of PDPN antagonist on melanoma, we used a Ph.D.TM-12 Phage Display Peptide Library to screen for a PDPN antagonist peptide. After four rounds of biopanning under progressively stringent selection conditions in vitro, seven clones with individual amino acid sequences were obtained (Fig. 3A). To assess the anti-tumor effects of these seven peptides on melanoma cells, the proliferation of A375 and A875 cell lines after treating with various concentration peptides were examined by CCK8 assay. […] We then performed immunofluorescence, SPR assay, and flow cytometry to identify the binding specificity of CY12-RP1 and CY12-RP2 with PDPN in melanoma cells. […]

CC(C)C[C@H](NC(=O)[C@H](Cc1ccc(O)cc1)NC(=O)[C@@H](N)[C@@H](C)O)C(=O)N[C@@H](CS)C(=O)N[C@H](C(=O)N[C@@H](C)C(=O)N[C@@H](CS)C(=O)N[C@@H](CC(=O)O)C(=O)N[C@@H](Cc1ccc(O)cc1)C(=O)N[C@H](C(=O)N[C@@H](Cc1c[nH]cn1)C(=O)N[C@@H](Cc1c[nH]cn1)C(=O)O)[C@@H](C)O)[C@@H](C)O [CY12-RP2] (H-TYLCTACDYTHH-OH; N-terminus and C-terminus assumed)
ALT [1]: not significantly changed | AST [1]: not significantly changed | TG [1]: increased | γ-GT [1]: increased | level of Ki67 (Ki67): significantly decreased | binding to PDPN (in words) [2]: bound to PDPN in a dose-dependent manner

From PMC10759609, “A novel PDPN antagonist peptide CY12-RP2 inhibits melanoma growth via Wnt/β-catenin and modulates the immune cells” (Journal of Experimental & Clinical Cancer Research : CR, 2024)
